Laboratory results as given in patent US20250281472A1, “OPHTHALMIC COMPOSITION INHIBITING OCCURRENCE OF N-OXOPYRIDINE COMPOUND FOR PREVENTING OR TREATING EYE DISEASE” (Samjin Pharmaceutical Co., Ltd., priority 2021, published 2025).

Test: Long-term storage of the active ingredient as a liquid eye drop (impurity formation)
Assay type: physicochemical
Description: The present invention is to provide a composition capable of providing an eye drop treatment for various eye diseases. For this purpose, the composition has the essential condition of securing the stability of the active ingredient in a liquid state as an eye drop for about six months or more. […] And as a result of confirming a structure of the corresponding impurity, it was confirmed that the impurity is 3-phenyl-4-propyl-1-(N-oxopyridin-2-yl)-1H-pyrazol-5-ol (hereinafter, N-oxopyridine compound), in which an N-oxide structure is formed in a pyridine structure of the active ingredient. If the pH condition is adjusted to a neutral region where the active ingredient is stable, most impurities are controlled to be within about 0.5%. However, it was confirmed that the N-oxopyridine compound drastically increases to a level exceeding about 30% with a decrease in the active ingredient content even when the pH is controlled.

level of N-oxopyridine compound (liquid eye drop stored about six months or more, long-term storage condition, pH controlled to neutral region): exceeding 30% | most impurities (other than N-oxopyridine compound) (liquid eye drop, pH adjusted to a neutral region): ≤ 0.5%
Compound: CCCc1c(-c2ccccc2)nn(-c2ccccn2)c1O [3-phenyl-4-propyl-1-(pyridin-2-yl)-1H-pyrazol-5-ol]
